Measurements: patent US10858335B2 (Rigel Pharmaceuticals, Inc., priority 2014, dated 2020)

Each molecule was assayed on GDF8 signaling (p-SMAD-3 (Ser423/425)) (assay: AlphaScreen SureFire SMAD3 (p-Ser423/425) assay, GDF8-stimulated cells (GDF pSMAD)). Details: MPC11; GDF8-stimulated; p-SMAD3 AlphaScreen; read-out: GDF pSMAD (MPC11) (inhibition of GDF8 signaling).
Format: cell-based
Excerpt: Biological Example 1: AlphaScreen® SureFire® SMAD3 (p-Ser423/425) Assay
The p-SMAD-3 (Ser423/425) SureFire® assay has been designed to measure the phosphorylation of endogenous cellular p-SMAD-3 (Ser423/425) in cell lysates and is a system for the screening of both modulators of receptor activation (e.g. agonists and antagonists) as well as agents acting intracellularly, such as small molecule inhibitors of upstream events. The assay will measure p-SMAD-3 (Ser423/425) activation by either cloned or endogenous receptors, and can be applied to primary cells.
P-SMAD-3 (Ser423/425) SureFire® Assay Protocols
Step A: Preparation of Buffers
1× Lysis buffer: 1 ml of 5× Lysis buffer was diluted with 4 ml of sterile water. After dilution, excess 1× Lysis buffer can be frozen and thawed up to 5 times without loss in activity.
Activation buffer: The buffer was warmed slowly to 37° C. and gently mixed to re-suspend. Activation buffer can be stored at room temperature with no loss in activity.
Reaction buffer: The buffer was kept at 4° C. while in use.
AlphaScreen® Protein A IgG Kit: The kit was stored at 4° C. in the dark.
Reaction buffer+Activation buffer+AlphaScreen® Acceptor beads: Reaction buffer (40 parts), Activation Buffer (10 parts) and Acceptor beads (1 part) were mixed and the mixture was stored at room temperature and used the same day. Mixture was added to 384-well plates; excess mixture was discarded.
Dilution buffer+AlphaScreen® Donor beads: Dilution buffer (20 parts) and Donor beads (1 part) were mixed and the mixture was stored at room temperature and used the same day. Excess mixture was discarded.
Assay control samples: After reconstitution in 250 μl of water, lysates were at −20° C. in single use aliquots.
Step B: Preparation of Samples and Cells
96-well Assay Protocol for 293FT and RMS13 adherent cells can be carried out manually or in high throughput with liquid handling robots.
The cells (80 μL of cells for 96 well plates) were plated in collagen coated tissue culture plates in RPMI or FreeStyle medium (Invitrogen) and incubated overnight. For manual analysis, 6 plates for GDF8, 6 plates for TGFβ, and optionally 6 plates for AlkSca(ALK5 constitutively active) were used.
The compound dilution plates were prepared as follows: 12 μL of DMSO was transferred into first column of 96-well plate, and 16 μL of DMSO was transferred into columns 2-12 of the 96-well plate. 12 μL of compound solution was transferred into first column of the DMSO-containing 96-well plate. Three-fold dilution was performed up to column 10 of the DMSO-containing 96-well plate.
Step C: Treatment and Analysis
The plate containing cells were treated with compounds for about 10 minutes, and then ligand was added. GDF8 or TGFb was added to plates to stimulate. 293FL cells were stimulated for 90 minutes at 37° C.; and RMS13 cells were stimulated for 60 minutes at 37° C. The medium was then removed from the cells, and 1× Lysis Buffer (about 25 μL) was added and the plate was gently agitated on plate shaker for 5-10 minutes.
The lysate (5 μL) was then placed into 384-well shallow plates avoiding the generation of bubbles. To this, the Reaction Buffer+Activation Buffer+AlphaScreen® Acceptor beads mixture (5 μL) was added. The plate was sealed with adhesive cover and shielded from light (e.g., with metal foil), and agitated gently on plate shaker for 2 hours at room temperature.
Dilution buffer+AlphaScreen® Donor beads (2 μL) was then added, and the plate was intubated on the plate shaker for an additional 1½ hours. After completion, the plate was read on Synergy-4 or Enspire plate reader, using AlphaScreen® pSMAD3® settings.
Representative results for inhibition of GDF8 signaling are shown in Table 2(data=GDF pSMAD (MPC11) (μM)): […]

Row | Structure (SMILES) | IC50 [µM]
1 | Cc1cc(-c2ncccc2-c2ccn3ncc(C(=O)NC4CC5CCC(C4)N5C)c3c2)ccc1F (stereo not drawn) [compound 716, endo-5-(2-(4-Fluoro-3-methylphenyl)pyridin-3-yl)-N-(8-methyl-8-azabicyclo[3.2.1]octan-3-yl)pyrazolo[1,5-a]pyridine-3-carboxamide] | 5.03

Same assay, conditions: Mus musculus, MPC-11, GDF8-stimulated pSMAD3, MPC11; tested as the salt form given; read-out: GDF pSMAD (MPC11) (μM), inhibition of GDF8 signaling

Row | Structure (SMILES) | IC50 [µM]
2 | Cc1c(F)cc(C(F)F)cc1-c1ncccc1-c1ccc2ncnc(N)c2c1 [compound 1034, 6-(2-(5-(difluoromethyl)-3-fluoro-2-methylphenyl)pyridin-3-yl)quinazolin-4-amine] | 0.342
3 | Cc1cc(-c2ncccc2-c2ccc3ncsc3c2)c(C)cc1F [compound 1061] | 0.473
4 | COC(=O)CNc1ncnc2ccc(-c3cccnc3-c3ccc(F)c(C)c3)cc12 [compound 1028, methyl (6-(2-(4-fluoro-3-methylphenyl)pyridin-3-yl)quinazolin-4-yl)glycinate] | 10.4

Same assay, conditions: Mus musculus, MPC-11, MPC11; GDF8-stimulated; p-SMAD3 AlphaScreen; read-out: GDF pSMAD (MPC11) (inhibition of GDF8 signaling)

Row | Structure (SMILES) | IC50 [µM]
5 | Cc1cc(-c2ncc(NCc3ccc(C#N)cc3)cc2-c2ccc3nccnc3c2)ccc1F [compound 308, 4-(((6-(4-Fluoro-3-methylphenyl)-5-(quinoxalin-6-yl)pyridin-3-yl)amino)methyl)benzonitrile] | 4.81
6 | COc1ccc(NC(=O)c2cnc3ccc(-c4cccnc4-c4ccc(F)c(C)c4)cn23)cc1OC [compound 582, N-(3,4-Dimethoxyphenyl)-6-(2-(4-fluoro-3-methylphenyl)pyridin-3-yl)imidazo[1,2-a]pyridine-3-carboxamide] | 0.494
7 | Nc1ncnc2ccc(-c3cccnc3-c3cc(F)c(F)c(F)c3)cc12 [compound 469, 6-(2-(3,4,5-Trifluorophenyl)pyridin-3-yl)quinazolin-4-amine] | 1.58
8 | Cc1cc(-c2ncccc2-c2cnc3[nH]ncc3c2)ccc1F [Compound 78, 5-(2-(4-Fluoro-3-methylphenyl)pyridin-3-yl)-1H-pyrazolo[3,4-b]pyridine] | 0.316
9 | CN1CCC(NC(=O)c2cnn3ccc(-c4cccnc4-c4ccc(F)c(Cl)c4)nc23)CC1 [compound 899, 5-(2-(3-Chloro-4-fluorophenyl)pyridin-3-yl)-N-(1-methylpiperidin-4-yl)pyrazolo[1,5-a]pyrimidine-3-carboxamide] | 2.14
10 | Cc1cc(-c2ncccc2-c2ccc3ncn(C(C)C)c3c2)ccc1F [Compound 48, 6-(2-(4-Fluoro-3-methylphenyl)pyridin-3-yl)-1-isopropyl-1H-benzo[d]imidazole] | 8.38
11 | O=C(NCCCN1CCCC1=O)c1cnc2ccc(-c3cccnc3-c3cc(F)c(F)cc3F)cn12 [compound 728, N-(3-(2-Oxopyrrolidin-1-yl)propyl)-6-(2-(2,4,5-Trifluorophenyl)pyridin-3-yl)imidazo[1,2-a]pyridine-3-carboxamide] | 5.06
12 | COc1cccc(-c2ncccc2-c2ccc3ncc(C#N)n3c2)c1 [compound 626, 6-(2-(3-Methoxyphenyl)pyridin-3-yl)imidazo[1,2-a]pyridine-3-carbonitrile] | 0.346
13 | Cn1cnc2ccc(-c3cccnc3-c3cccc(Cl)c3)cc21 [compound 769, 6-(2-(3-Chlorophenyl)pyridin-3-yl)-1-methyl-1H-benzo[d]imidazole] | 0.153
14 | Cc1cc(-c2ncccc2-c2ccc3c(cnn3C(=O)NCCCN(C)C)c2)ccc1F [compound 634, N-(3-(Dimethylamino)propyl)-5-(2-(4-fluoro-3-methylphenyl)pyridin-3-yl)-1H-indazole-1-carboxamide] | 14.8
15 | CC(=O)c1cnc2ccc(-c3cccnc3-c3cccc(C4CC4)c3)cn12 [compound 588, 1-(6-(2-(3-Cyclopropylphenyl)pyridin-3-yl)imidazo[1,2-a]pyridin-3-yl)ethan-1-one] | 0.316
16 | Nc1ncnc2ccc(-c3cccnc3-c3cc(Cl)c(F)cc3F)cc12 [compound 450, 6-(2-(5-Chloro-2,4-difluorophenyl)pyridin-3-yl)quinazolin-4-amine] | 0.136
17 | Nc1noc2cc(-c3cccnc3-c3cccc(Cl)c3)ccc12 [compound 798, 6-(2-(3-Chlorophenyl)pyridin-3-yl)benzo[d]isoxazol-3-amine] | 2.62
18 | Fc1ccc(-c2ncccc2-c2ccc3cn[nH]c3c2)cc1 [Compound 101, 6-(2-(4-Fluorophenyl)pyridin-3-yl)-1H-indazole] | 11.2
19 | Nc1ncnc2ccc(-c3cccnc3-c3ccccc3Cl)cc12 [compound 497, 6-(2-(2-Chlorophenyl)pyridin-3-yl)quinazolin-4-amine] | 9.22
20 | COc1cccc(-c2ncc3cc(-c4cccnc4-c4ccc(F)c(C)c4)ccn23)c1 [compound 286, 7-(2-(4-Fluoro-3-methylphenyl)pyridin-3-yl)-3-(3-methoxyphenyl)imidazo[1,5-a]pyridine] | 12
21 | Cc1cccc(-c2ncccc2-c2ccc3ncsc3n2)c1 [compound 304, 5-(2-(m-Tolyl)pyridin-3-yl)thiazolo[5,4-b]pyridine] | 0.0853
22 | CCOCCCn1cnc2ccc(-c3cccnc3-c3cccc(C)c3)cc21 [Compound 39, 1-(3-Ethoxypropyl)-6-(2-m-tolylpyridin-3-yl)-1H-benzo[d]imidazole] | 14.3
23 | Cc1cc(-c2ncccc2-c2ccc3ncnc(Oc4cccc(C#N)c4)c3c2)ccc1F [compound 441, 3-((6-(2-(4-Fluoro-3-methylphenyl)pyridin-3-yl)quinazolin-4-yl)oxy)benzonitrile] | 1.16
24 | CC(=O)c1cnc2ccc(-c3cccnc3-c3ccc(F)c(Cl)c3)cn12 [compound 762, 1-(6-(2-(3-Chloro-4-fluorophenyl)pyridin-3-yl)imidazo[1,2-a]pyridin-3-yl)ethan-1-one] | 1.19
25 | Cc1cc(-c2ncccc2-c2ccc3ncnc(NCCCN(C)C)c3c2)ccc1F [compound 423, N1-(6-(2-(4-Fluoro-3-methylphenyl)pyridin-3-yl)quinazolin-4-yl)-N3,N3-dimethylpropane-1,3-diamine] | 0.628
26 | Fc1ccc(-c2ncccc2-c2ccc3[nH]ncc3c2)cc1C1CC1 [compound 211, 5-(2-(3-Cyclopropyl-4-fluorophenyl)pyridin-3-yl)-1H-indazole] | 0.198
27 | Cn1cnc2ccc(-c3cccnc3-c3cc(Cl)ccc3F)cc21 [compound 785, 6-(2-(5-Chloro-2-fluorophenyl)pyridin-3-yl)-1-methyl-1H-benzo[d]imidazole] | 0.11
28 | Fc1ccc(-c2ncccc2-c2ccc3ncnc(C4CC4)c3c2)cc1Cl [compound 507, 6-(2-(3-Chloro-4-fluorophenyl)pyridin-3-yl)-4-cyclopropylquinazoline] | 3.37
29 | Cc1cc(-c2ncccc2-c2ccc3ncc(N4CCCC4)n3c2)ccc1F [compound 561, 6-(2-(4-Fluoro-3-methylphenyl)pyridin-3-yl)-3-(pyrrolidin-1-yl)imidazo[1,2-a]pyridine] | 11
30 | CC(=O)NCCNC(=O)c1cnc2ccc(-c3cccnc3-c3ccc(F)c(C)c3)cn12 [compound 815, N-(2-Acetamidoethyl)-6-(2-(4-fluoro-3-methylphenyl)pyridin-3-yl)imidazo[1,2-a]pyridine-3-carboxamide] | 0.941
31 | Fc1ccc(-c2ncccc2-c2ccc3ncsc3c2)cc1 [compound 659, 6-(2-(4-Fluorophenyl)pyridin-3-yl)benzo[d]thiazole] | 2.01
32 | Cc1c(Cl)cccc1-c1ncccc1-c1ccc2ncnc(N)c2c1 [compound 464, 6-(2-(3-Chloro-2-methylphenyl)pyridin-3-yl)quinazolin-4-amine] | 3.96
